According to patent US6977269B1, “Method of improving animal tissue quality” (Pioneer Hi-Bred International, Inc, priority 2001, dated 2005):
Where two headings read alike, the source gives them in different places. Marks after values point to notes of the source that are not given here.

What was measured:
[1] = test system: lambs; assay: Growth performance in lambs; format: in vivo; conditions: for Interim BW: after 20 days on test; for Final BW: after 43 days on test
Source text: The effects of diet supplementation with alpha-tocopherol and gamma-tocopherol on tissue oxidation and storage life of fresh meat from lambs fed a diet supplemented with tocopherol was studied. A total of 42 weaned Western white-faced lambs (4 ewes, 38 males) were used in a feeding trial. The lambs were housed two per pen in a slatted floor barn and initially fed chopped oat hay, then gradually acclimated to a beet pulp-based basal diet. The basal ration consisted of 82.2% beet pulp pellets, 9.5% chopped oat hay, 6.0% liquid molasses, 1.5% soybean meal, 0.8% mineralized salt, and monensin (30 g/ton). All lambs were given ad libitum access to the basal diet.
The basal diet was fed for 60 days and on days 61 and 62, lambs were weighed to calculate initial body weight. Lambs were blocked by weight, without regard to gender, and randomly assigned within weight blocks to pens, and pens were randomly assigned to dietary treatments (14 lambs/treatment).
Interim and final weights were taken on two consecutive days after 20 and 43 days on test, respectively, to calculate average daily weight gain (ADG) and feed conversion. On the 45th day on test, the lambs were transported to a commercial packing plant and slaughtered the following morning. Standard carcass data were collected.
The fourth column is standard error of measurement (SEM). The last two columns are P values for the statistical comparison of the alpha group versus the gamma group, and the control group versus the alpha and gamma groups.

[2] = Lamb loin antioxidant concentrations
[3] = in vivo; conditions: male, sheep (lambs)
[4] = male, sheep (lambs), in vivo
[5] = test system: iron-loaded rats; conditions: ability to inhibit lipid peroxidation; cited from earlier work

SMILES: Cc1c(C)c2c(c(C)c1O)CC[C@@](C)(CCC[C@H](C)CCC[C@H](C)CCCC(C)C)O2 [Alpha-tocopherol, alpha-tocopherol, reference compound]
- Gain: feed ([1]; 1st 20 Days): 124.2 g/kg
- Intake ([1]; 1st 20 Days): 1.43 kg/day
- ADG ([1]; 1st 20 Days, 500 IU/kg/day): 164.1 g/day
- ADG ([1]; 2nd 23 Days): 190.9^b g/d
- Gain: feed ([1]; 2nd 23 Days): 127.1^a g/kg
- Intake ([1]; 2nd 23 Days): 1.54 kg/day
- ADG ([1]; 2nd 23 Days, listed as alpha-tocopherol): 190.9 g/day
- ADG ([1]; Overall): 182.3 g/day
- Gain: feed ([1]; Overall): 126.0^a g/kg
- Intake ([1]; Overall): 1.49 kg/day
- Interim BW [1]: 52.1 kg
- Final BW [1]: 56.6 kg
- Alpha-Tocopherol in loin ([2]; Day 1): 3.83^a μg/g
- Gamma-Tocopherol in loin ([2]; Day 1): 0.30^b μg/g
- Total antioxidant in loin ([2]; Day 1): 4.13^b μg/g
- Alpha-Tocopherol in loin ([2]; Day 6): 6.22^a μg/g
- Gamma-Tocopherol in loin ([2]; Day 6): 0.43^b μg/g
- Total antioxidant in loin ([2]; Day 6): 6.70^b μg/g
- Alpha-Tocopherol in loin ([2]; Overall): 5.04^a μg/g
- Gamma-Tocopherol in loin ([2]; Overall): 0.37^b μg/g
- Total antioxidant in loin ([2]; Overall): 5.41^b μg/g

SMILES: Cc1c(O)cc2c(c1C)O[C@](C)(CCC[C@H](C)CCC[C@H](C)CCCC(C)C)CC2 [Gamma-tocopherol, gamma-tocopherol]
- concentration at 1 day [3]: 7180 ng/g
- concentration at 6 day [3]: 5570 ng/g
- Alpha-Tocopherol in loin [4]: 3.22^b μg/g
- Increase of tissue gamma-tocopherol level over control treatment [4]: over 35 times
- Total antioxidant in loin [4]: 9.57^a μg/g
- Alpha-Tocopherol in loin ([4]; 1 day): 3.47^a μg/g
- Total antioxidant in loin ([4]; 1 day): 10.6^a μg/g
- Alpha-Tocopherol in loin ([4]; 6 day): 2.87^b μg/g
- Total antioxidant in loin ([4]; 6 day): 8.47^a μg/g
- antioxidant efficacy relative to alpha-tocopherol on a per unit mass basis [5]: about one-third
- Gain: feed ([1]; 1st 20 Days): 132.6 g/kg
- Intake ([1]; 1st 20 Days): 1.35 kg/day
- ADG ([1]; 1st 20 Days, 500 IU/kg/day): 173.5 g/day
- ADG ([1]; 2nd 23 Days): 264.0^a g/d
- Gain: feed ([1]; 2nd 23 Days): 187.2^b g/kg
- Intake ([1]; 2nd 23 Days): 1.45 kg/day
- ADG ([1]; 2nd 23 Days, listed as gamma-tocopherol): 264.0 g/day
- ADG ([1]; Overall): 221.9 g/day
- Gain: feed ([1]; Overall): 162.8^b g/kg
- Intake ([1]; Overall): 1.40 kg/day
- Interim BW [1]: 53.0 kg
- Final BW [1]: 59.1 kg
